# In ChEMBL document CHEMBL1155094, “Isosteric exchange of the acylsulfonamide moiety in Abbott's Bcl-XL protein interaction antagonist” (Bioorg Med Chem Lett, 2008):
# Molecular target: T1, Bcl-2-like protein 2 (Homo sapiens, UniProt Q92843)
# T1 sequence (Q92843 whole entry): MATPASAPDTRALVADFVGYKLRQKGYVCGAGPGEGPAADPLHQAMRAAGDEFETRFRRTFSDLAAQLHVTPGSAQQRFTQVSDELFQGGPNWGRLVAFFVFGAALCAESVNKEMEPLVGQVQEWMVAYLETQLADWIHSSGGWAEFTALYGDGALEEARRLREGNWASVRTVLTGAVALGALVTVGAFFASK
# Assay: Inhibition of 5-carboxyfluorescein-labeled Flu-Bak-BH3 peptide binding to Bcl-w by fluorescence polarization assay
row,Compound,Ki [µM]
1,CN(CC(=O)Nc1ccc(N2CCCCC2)c([N+](=O)[O-])c1)C(=O)c1ccc(-c2ccccc2)cc1,10.8
2,CN(CC(=O)Nc1ccc(NC23CC4CC(CC(C4)C2)C3)c([N+](=O)[O-])c1)C(=O)c1ccc(-c2ccccc2)cc1,9.43
3,CN(CC(=O)Nc1ccc(N2CCSCC2)c([N+](=O)[O-])c1)C(=O)c1ccc(-c2ccccc2)cc1,13
